Data reported in US11690828B2, “Treatment of CNS diseases with sGC stimulators” (Cyclerion Therapeutics, Inc., priority 2016, dated 2023).

Experiments:
[1] = test system: cGMP; experiment: Compound-induced cGMP in mouse brain; format: in vivo
Experimental: Protocol. Mice (n=9-10 per experimental condition) were dosed P.O. with vehicle (1% hydroxypropyl methyl cellulose, 0.2% Tween80, 0.5% methyl cellulose), P.O. with 10 mg/Kg of Compound I-2. Thirty minutes after dosing, under isoflurane anesthesia, each mouse was decapitated and its brain was removed and was placed into an ice-cold petri dish containing slushy dissection solution (saturated with 95% O2·5% CO2). Using an ice-cold spatula, the brain was transferred to mouse brain matrix with coronal spacing for slicing at 1 mm intervals, as schematized in the FIGURE below (not to scale, just a scheme). • ?
The sliced brain was transferred back into petri dish containing slushy dissection solution with IBMX 0.5 mM (saturated with 95% O2·5% CO2). The dorsal striatum is dissected first, followed by the hippocampus second, followed by the medial prefrontal cortex third, and lastly, the cerebellum fourth. After each region was dissected the “chunk” of tissue was immediately placed into an eppendorf which had been placed on dry ice for the previous 30 minutes. Small pieces of tissue froze very fast, within 10 seconds approximately. After all regions were placed in an eppendorf, eppendorfs were snap frozen by immersion into liquid nitrogen. The tissue samples were stored at −80 C. cGMP levels in brain were determined by LC/MS. Brain samples were homogenized in an aqueous buffer consisting of 80:20 (V/V %) water:acetic acid using an ultrasonicator probe. Brain homogenates containing sGC compounds and or cGMP were extracted from brain tissue by protein precipitation with an organic solvent containing internal standards (IS) followed by filtration and phospholipid removal using a Phenomenex® Phree™ phospholipid removal plate. Samples were analyzed using liquid chromatography (LC) with tandem mass spectrometric detection (MS/MS) using electrospray ionization. The standard curve concentrations used for quantitation of cGMP and or sGC compound(s) ranged from 0.2 to 400 ng/mL. Protein quantification of brain samples was determined using BCA protein assay kit.

[2] = test system: male Long Evans rats; experiment: Novel Object Recognition (NOR) test, MK-801-induced memory deficit; format: in vivo, rat
[3] = test system: rats; experiment: Formalin test - score; format: in vivo, rat; details: Compound I-2 p.o. 10 mg/kg; 120 minutes after treatment
Experimental: Formalin Test. 2.5% formalin solution was injected by subplantar route into the right hind paw. Scoring of pain behavior was performed in rats for 36 minutes every 3 minutes according to the following scores:
0=normal behavior of the injected hind limb to support the body
1=slight touching of the injected paw on the floor to lightly support or not support the body
2=total withdrawal of the injected paw
3=licking, biting or shaking of the injected paw.
(§1) Testing: 120 minutes after treatment. N=4/model/test. Results are expressed for each group as a percentage of activity calculated from the mean value of the vehicle-treated animals and compared to naïve animals, control paw, or cut-off value, depending on the test.

[4] = test system: rats; experiment: Bennett model - paw pressure test; format: in vivo, rat; details: Compound I-2 p.o. 10 mg/kg; 120 minutes after treatment
Experimental: Paw Pressure Test. Static mechanical hyperalgesia is measured. This test requires the application of an increasing pressure on the hind paws between a flat surface and a blunt pointer. To evaluate the analgesic action of a compound, one hind paw of the animal was inflamed by an injection or injured by ligation, while the other hind paw was not injured or inflamed. The apparatus exerted a steadily increasing force on the hind paws. The reaction threshold was determined as the pressure (g) required to elicit paw withdrawal and/or vocalization. The animals were gently handled by the experimenter and static mechanical hyperalgesia were assessed two times for both hind paws.
Bennett Model. Peripheral mononeuropathy was induced by loose ligation of the sciatic nerve in anesthetized rats (Xylazine 10 mg/kg i.p., ketamine 60 mg/kg i.p.) on D−14. Briefly, the common sciatic nerve was exposed at the level of the middle of the thigh by blunt dissection through the biceps femoris. Proximal to the sciatic trifurcation, four ligatures were loosely tied around it with about 1-mm spacing. […]
Testing: 120 minutes after treatment. […] Results are expressed for each group as a percentage of activity calculated from the mean value of the vehicle-treated animals and compared to naïve animals, control paw, or cut-off value, depending on the test.

[5] = test system: rats; experiment: Brennan model - electronic Von Frey test; format: in vivo, rat; details: Compound I-2 p.o. 10 mg/kg; 120 minutes after treatment
Text: Brennan Model. Surgery: Surgery was done under gas anesthesia (2.5% isoflurane/3 L/min). For all rats, the plantar aspect of the left hind paw was exposed and a 1 cm longitudinal incision was made using a surgical blade, through the skin and fascia of the plantar aspect of the foot, starting 0.5 cm from the proximal edge of the heel and extending toward the toes. The plantaris muscle was elevated and incised longitudinally whereas the insertions remained intact. After hemostasis with gentle pressure, the skin was stitched up with two sutures. After surgery, animals recovered in their cages.
Electronic Von Frey Test. Tactile allodynia was assessed using the electronic Von Frey test 24 h after surgery. The test requires the application of an increasing pressure onto the plantar aspect of the hind paws. The apparatus exerted a steady force on the hind paws. Reaction thresholds were determined as the pressure (g) required to elicit paw withdrawal. Each reaction threshold measurement was repeated three times for both hind paws with intervals of approximately 2 to 3 mins.
as §1

[6] = I-2 0.1 mg/kg, compared to Vehicle/MK-801 group

## Fc1ccccc1Cn1nc(-c2nc(C(F)(F)F)n[nH]2)c2cccnc21 [Compound I-2]
[1]; mouse cortex, 10 mg/Kg P.O., 30 minutes after dosing, vehicle 0.075
  mPFC: nM cGMP/μg protein: 0.124 nM cGMP/μg protein
[1]; mouse, 10 mg/Kg P.O., 30 minutes after dosing, vehicle 0.033
  Hippocampus: nM cGMP/μg protein: 0.072 nM cGMP/μg protein
[1]; mouse, 10 mg/Kg P.O., 30 minutes after dosing, vehicle 0.062
  Striatum: nM cGMP/μg protein: 0.104 nM cGMP/μg protein
[1]; mouse, 10 mg/Kg P.O., 30 minutes after dosing, vehicle 0.364
  Cerebellum: nM cGMP/μg protein: 0.681 nM cGMP/μg protein
[1]; mouse, acute 10 mg/Kg P.O.
  cGMP in the cerebellum versus vehicle: significant increase
  cGMP in the cortex versus vehicle: significant increase
  cGMP in the hippocampus versus vehicle: significant increase
[2]; I-2 0.1 mg/kg oral + MK-801 0.1 mg/kg IP
  Recognition Index, Mean (0 to 3 minute time bin): 68.21%
[2]; [6]
  Reversal of MK-801-induced memory deficits, 0-3 minute time range: significantly reversed
  Reversal of MK-801-induced memory deficits, 0-5 minute time range: significantly reversed
[2]; I-2 1 mg/kg oral + MK-801 0.1 mg/kg IP
  Recognition Index, Mean (0 to 3 minute time bin): 63.98%
[2]; I-2 10 mg/kg oral + MK-801 0.1 mg/kg IP
  Recognition Index, Mean (0 to 3 minute time bin): 61.76%
[3]
  % of activity vs. vehicle, formalin test score (early phase): 61%
  % of activity vs. vehicle, formalin test score (late phase): 11%
[4]
  % of activity vs. vehicle, Bennett model paw pressure test: 65%
[5]
  % of activity vs. vehicle, Brennan model electronic Von Frey test: 16%
